Source: patent US6710075B2, “Therapeutic compounds and methods” (The Government of the State of Sarawak, Malaysia, priority 2000, dated 2004)
Like-named read-outs stand apart in the source and are kept apart here.

Experiments:
A549 = assay: Cytotoxic activity, sub-diploid DNA content by flow cytometry (propidium iodide); format: cell-based, human
Protocol: (§1) (b) Compound A was assessed for cytotoxic and cytostatic activity against a panel of cell lines derived from a variety of human tumour types in addition to THP-1 and A549 cells (Table 5). These included K562 leukemic cells (Lozzio and Lozzio, 1975, Blood 45:321-34), PC3 prostate tumour cells (Kaighn et al., 1979, Invest. Urol. 17:16-23) and SF268 glioblastoma cells (Westphal et al, 1985, Biochem. Biophys. Res. Commun., 132:284-9). […] However, the cytotoxic potency of Compound A increased dramatically after 6 days of culture for the K562, A549 and SF268 cells.

[1] = tested on: panel of cell lines derived from a variety of human tumour types; assay: Cytostatic activity against a panel of human tumour cell lines (summary); format: cell-based; settings: 72 h, range over the cell line panel, 3 days, read-out: GI50 values in nearly all cell lines tested
Protocol: as §1

THP-1 cells = assay: WST-1 reduction by THP-1 cells; format: cell-based, human; settings: Homo sapiens
Source text: (a) Compounds A and B were identified from a bark sample of Aglaia leptantha through their ability to inhibit production of Tumour Necrosis Factor-α (TNF-α) by THP-1 human promonocytic leukemia cells (Tsuchiya, et al, Int. J. Cancer, 1980, 26(2):171-6) activated with lipopolysaccharide (LPS). Table 4 summarises the results comparing the activity of Compounds A and B for inhibition of TNF-α production to their effects on general cell metabolism measured using WST-1 reduction, DNA synthesis and protein synthesis assays for THP-1 cells. […] For comparison, the effects of Compounds A and B on A549 lung epithelial carcinoma cells (Leiber et al, Int. J. Cancer, 1976, 17(1)-62-70) were also measured and the data is also included in Table 4.

Compound: COC(=O)[C@H]1[C@@H](O)[C@@]2(O)c3c(OC)cc(OC4OC(C(O)CO)COC4OC)cc3O[C@@]2(c2ccc(OC)cc2)[C@@H]1c1ccccc1 (single isomer, unassigned) [Compound A]
- CC50 (A549; A549, 6 days, read-out: LC50 (6 day cultures)): 15 nM
- CC50 (A549; Homo sapiens, A549, 72 h, A549, 3 days, read-out: LC50 (3 day cultures)): 914 nM
- CC50 (A549; Homo sapiens, A549, 144 h, A549, 6 days, read-out: LC50 (6 day cultures)): 21 nM
- GI50 [1]: 1 to 7 nM
- IC50 (THP-1 cells; THP-1, 18 h, THP-1 cells, 18 hours of culture, read-out: IC50 WST-1 Reduction): 30 nM
- IC50 (THP-1 cells; THP-1, 72 h, THP-1 leukemic cells, cultured with compound for 3 days, read-out: IC50 (reduction of WST-1)): 2 nM
